Experimental data reported in publication PMC7767053, “Functional Analysis of Odorant-Binding Proteins 12 and 17 from Wheat Blossom Midge Sitodiplosis mosellana Géhin (Diptera: Cecidomyiidae)” (Insects, 2020).
Entries after “also recorded” stand apart in the source; their conditions may differ. Read-outs that look alike come from different tables or passages of the source.

What was measured:
SmosOBP12 = SmosOBP12 (Sitodiplosis mosellana, UniProt A0A346RTY7); experiment: Fluorescence competitive binding assay with 1-NPN probe, recombinant SmosOBP12; conditions: for Ki: calculated from IC50, Ki = [IC50]/(1 + [1-NPN]/K1-NPN); for binding to SmosOBP12 (in words): fluorescence competitive binding
Protocol: (§1) To determine binding affinities of SmosOBP12 and SmosOBP17 to host plant volatile compounds, fluorescence competitive binding assays were conducted using 1-N-phenyl-naphthylamine (1-NPN) as the fluorescent probe. Twenty-eight volatile compounds from winter wheat (Table 2) were selected based on our previous research. Both the probe and candidate ligands were dissolved in chromatographic-grade methanol to obtain 1 mM stock solutions, whereas recombinant SmosOBPs were diluted in 20 mM Tris-HCl (pH 7.4) to 2 μM. Fluorescence intensity was detected on an F-4600 fluorescence spectrophotometer (Hitachi, Tokyo, Japan) with a 1 cm light path quartz cuvette. Slits of both excitation and emissions were 10 nm in width. The probe was excited at 337 nm, and emission spectra were recorded between 370 and 550 nm.
(§2) Affinities of SmosOBPs to tested volatile ligands were measured by competition assays: to the 1 mL solution containing 2 μM recombinant protein and 2 μM 1-NPN, 1 mM solution of each putative volatile ligand (in a 2 µL aliquot) was added to final concentrations of 2–14 μM for SmosOBP12 and 2–40 μM for SmosOBP17, respectively. Maximal fluorescence intensities were plotted against ligand concentrations. Data were obtained from three independent measurements.
(§3) The Kd value was calculated using GraphPad Prism 5 (GraphPad Software Inc., La Jolla, CA, USA) via nonlinear regression for a unique site of binding. The inhibition constant (Ki) of each ligand competitor was calculated from the corresponding IC50 value (the concentration of competitor displacing 50% of initial fluorescence intensity) according to the equation: Ki = [IC50]/(1 + [1-NPN]/K1-NPN), where [1-NPN] is the free concentration of 1-NPN, and K1-NPN is the dissociation constant of the SmosOBPs/1-NPN complex.

SmosOBP17 = SmosOBP17 (Sitodiplosis mosellana, UniProt A0A346RTY9); experiment: Fluorescence competitive binding assay with 1-NPN probe, recombinant SmosOBP17; conditions: for Ki: calculated from IC50, Ki = [IC50]/(1 + [1-NPN]/K1-NPN); for binding to SmosOBP17 (in words): fluorescence competitive binding
Protocol: as §1, §2, §3

S. mosellana females = experiment: Y-tube olfactometer bioassay; type: in vivo, Sitodiplosis mosellana; conditions: 10 μL of 20 μg/μL in paraffin oil vs paraffin oil control; 60 females
Protocol: Behavioral responses of S. mosellana females to the 28 volatile ligands were measured in a glass Y-tube olfactometer. The base and two arms of the Y-tube are 15 cm in length and 25 mm in internal diameter. The angle between arms is 60°. A 10 μL aliquot of the test chemical in paraffin oil at a concentration of 20 μg/μL [45] was applied to a filter paper strip (20 × 20 mm), which was allowed to evaporate for 20 s and then placed into one of the two odor bottles. The other odor bottle contained a filter paper strip treated with 10 μL of paraffin oil as the control. Moist, activated-charcoal filtered air entered both odor bottles connected by Teflon tubing to their respective arms of the Y-tube. The airflow rate through the olfactometer was 100 mL/min, which was measured by a float rotor meter. A newly emerged female S. mosellana adult was introduced into the end of the base of the Y-tube, which was then immediately covered with a dark paper box. An office lamp (20 W) illuminated the joint of two arms to facilitate observation. The choice was made if the S. mosellana female walked or flew 5 cm past the Y junction within 5 min and remained there for at least 15 s. Otherwise, it would be recorded as no-choice. Odor source was renewed for every five individuals. After testing for 10 individuals, the Y-tube was thoroughly cleaned with 95% ethanol and dried, and the treatment and control arms were switched to avoid the directional bias. After one odor source was tested, the Y-tube, odor bottles, and Teflon tubing were cleaned and dried before reuse. All experiments were conducted in a laboratory with a temperature of 25 ± 1 °C from 5:00 to 9:00 p.m. Sixty female adults were tested in each treatment group, and each individual was used only once. The choice response of insects in each treatment group was analyzed by the chi-square test using SPSS 20.0 software (Chicago, IL, USA). Non-selecting insects were recorded but not included in the statistical analysis.

[1] = test system: female antennae of S. mosellana; set-up: method as in Cheng et al., 2020; conditions: ref Cheng et al., 2020; cited from earlier work
SmosOBP11 = test system: SmosOBP11; set-up: method as in PMID 31017726; conditions: cited from earlier work
SmosOBP16 = test system: SmosOBP16; set-up: method as in PMID 31017726; conditions: cited from earlier work
SmosOBP21 = test system: SmosOBP21; set-up: method as in PMID 31017726; conditions: cited from earlier work
[2] = displacement of 1-NPN, 2 μM protein, 2 μM 1-NPN, ligand 2–14 μM, three independent measurements, read-out: SmosOBP12 IC50
[3] = displacement of 1-NPN, 2 μM protein, 2 μM 1-NPN, ligand 2–40 μM, three independent measurements, read-out: SmosOBP17 IC50

Sequence of SmosOBP17 (A0A346RTY9 entry or part of it): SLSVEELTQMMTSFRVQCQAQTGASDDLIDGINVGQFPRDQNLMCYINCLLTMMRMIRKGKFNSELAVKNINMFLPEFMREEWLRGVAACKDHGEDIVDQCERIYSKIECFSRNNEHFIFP
Sequence of SmosOBP12 (A0A346RTY7 entry or part of it): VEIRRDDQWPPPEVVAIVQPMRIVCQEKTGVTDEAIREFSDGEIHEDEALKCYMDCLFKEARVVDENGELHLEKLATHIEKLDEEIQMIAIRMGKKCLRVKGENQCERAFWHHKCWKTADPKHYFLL

| SMILES | Ki (SmosOBP12; read-out: SmosOBP12 Ki) | IC50 (SmosOBP12; [2]) | IC50 (SmosOBP17; [3]) | Ki (SmosOBP17) | binding to SmosOBP17 (in words) (SmosOBP17) | behavioral response of S. mosellana female adults (S. mosellana females) | other results |
| --- | --- | --- | --- | --- | --- | --- | --- |
| c1ccc(Nc2cccc3ccccc23)cc1 [1-NPN, 1-N-phenyl-naphthylamine, reference compound] | – | – | – | – | – | – | Kd (SmosOBP12; 2 µM protein titrated with 1-NPN 0–24 µM, read-out: dissociation constant (Kd) of SmosOBP12 with 1-NPN): 4.26 µM; Kd (SmosOBP17; 2 µM protein titrated with 1-NPN 0–24 µM, read-out: dissociation constant (Kd) of SmosOBP17 with 1-NPN): 3.02 µM |
| CCCCC(CC)CO (stereo not drawn) [2-Ethyl hexanol] | 6.36 ± 0.25 µM | 7.86 ± 0.31 µM | > 40 µM | > 30 µM | did not bind | – | – |
| CCCCC(C)=O [2-Hexanone] | – | – | – | – | – | – | IC50 (SmosOBP12): 12.66 ± 0.08 µM; Ki (SmosOBP12; SmosOBP12 Ki): 10.25 ± 0.06 µM; IC50 (SmosOBP17): > 40 µM |
| CC1=CCC2C(C1)C2(C)C (stereo not drawn) [3-Carene] | 3.84 ± 0.12 µM | 4.76 ± 0.15 µM | > 40 µM | – | – | intensive response; also recorded: significant attraction | – |
| CCCC(O)CC (stereo not drawn) [3-Hexanol] | 3.33 ± 0.05 µM | 4.12 ± 0.07 µM | 34.68 ± 0.34 µM | 26.05 ± 0.25 µM | – | intensive response; also recorded: significant attraction; also recorded: significantly attracted | electrophysiological response on female antennae [1]: strong electrophysiological responses |
| CCCC(=O)CC [3-Hexanone] | 6.26 ± 0.03 µM | 7.74 ± 0.04 µM | 37.1 ± 0.06 µM | 27.87 ± 0.04 µM | – | – | – |
| CCCCC(=O)CCCC [5-Nonanone] | 6.72 ± 0.1 µM | 8.32 ± 0.14 µM | > 40 µM | – | – | – | – |
| CC(C)(CO)[C@@H](O)C(=O)NCCCO [D-Panthenol] | 4.07 ± 0.05 µM | 5.04 ± 0.08 µM | 38.01 ± 0.2 µM | 28.55 ± 0.15 µM | – | intensive response; also recorded: significant attraction; also recorded: significantly attracted | electrophysiological response on female antennae [1]: strong electrophysiological responses |
| CCCCCCCCCCCC=O [Dodecanal] | 8.06 ± 0.37 µM | 9.94 ± 0.44 µM | > 40 µM | > 30 µM | did not bind | – | binding to SmosOBP12 (in words) (SmosOBP12): bound |
| CCCCCCCCCCCC [Dodecane] | > 11.3 µM | > 14 µM | > 40 µM | > 30 µM | – | – | – |
| COC(=O)c1ccccc1O [Methyl salicylate] | – | – | – | – | – | intensive response; also recorded: significant attraction; also recorded: significantly attracted | IC50 (SmosOBP12): 11.9 ± 0.24 µM; Ki (SmosOBP12; SmosOBP12 Ki): 9.62 ± 0.33 µM; IC50 (SmosOBP17): 26.8 ± 0.27 µM; electrophysiological response on female antennae [1]: strong electrophysiological responses |
| C=CC(C)=CCC=C(C)C [Ocimene] | 8.24 ± 0.03 µM | 10.17 ± 0.04 µM | > 40 µM | > 30 µM | insensitive; also recorded: did not bind | repelled; also recorded: intensive response; also recorded: significant repulsion; also recorded: strong repelling effect | Ki (SmosOBP12; listed as ocimene, read-out: SmosOBP12 Ki): 8.2 µM; binding to SmosOBP11 (in words) (SmosOBP11): did not bind; binding to SmosOBP16 (in words) (SmosOBP16): did not bind; binding to SmosOBP21 (in words) (SmosOBP21): did not bind |
| CCCCCCCCCCCCCCC [Pentadecane] | > 11.3 µM | > 14 µM | > 40 µM | > 30 µM | – | – | – |
| CCCCCCCCCCCCC [Tridecane] | > 11.3 µM | > 14 µM | > 40 µM | > 30 µM | – | – | – |
| CCCCCCCCCCCO [Undecanol] | 4.39 ± 0.02 µM | 5.43 ± 0.03 µM | > 40 µM | – | – | – | – |
| CC1=CC[C@@]23CC1C(C)(C)[C@@H]2CC[C@H]3C [α-Cedrene] | > 11.3 µM | > 14 µM | > 40 µM | > 30 µM | did not show any affinity | – | binding to SmosOBP12 (in words) (SmosOBP12): did not show any affinity |
| C/C1=C\CC/C(C)=C/CC(C)(C)/C=C/C1 [α-Humulene] | > 11.3 µM | > 14 µM | > 40 µM | > 30 µM | did not show any affinity | – | binding to SmosOBP12 (in words) (SmosOBP12): did not show any affinity |
| CC1=CCC2CC1C2(C)C (stereo not drawn) [α-Pinene] | – | – | – | – | did not bind | – | IC50 (SmosOBP12): 7.63 ± 0.06 µM; Ki (SmosOBP12; SmosOBP12 Ki): 6.17 ± 0.04 µM; IC50 (SmosOBP17): > 40 µM |
| C=C1CC/C=C(\C)CC[C@@H]2[C@@H]1CC2(C)C [β-Caryophyllene] | – | – | – | – | did not show any affinity | – | IC50 (SmosOBP12): > 14 µM; Ki (SmosOBP12; SmosOBP12 Ki): > 11.3 µM; binding to SmosOBP12 (in words) (SmosOBP12): did not show any affinity; IC50 (SmosOBP17): > 40 µM |

Further lines, with some results ahead:

| Ki (SmosOBP12; read-out: SmosOBP12 Ki) | IC50 (SmosOBP12; [2]) | IC50 (SmosOBP17; [3]) | Ki (SmosOBP17) | binding to SmosOBP17 (in words) (SmosOBP17) | SMILES | behavioral response of S. mosellana female adults (S. mosellana females) | other results |
| --- | --- | --- | --- | --- | --- | --- | --- |
| 5.29 ± 0.11 µM | 6.55 ± 0.12 µM | > 40 µM | – | – | C=CC(O)CCCCC (stereo not drawn) [1-Octen-3-ol] | intensive response; also recorded: significant attraction; also recorded: significantly attracted | electrophysiological response on female antennae [1]: strong electrophysiological responses |
| > 11.3 µM | > 14 µM | > 40 µM | > 30 µM | did not show any affinity | CCCCCCCCCCCC(C)=O [2-Tridecanone] | – | binding to SmosOBP12 (in words) (SmosOBP12): did not show any affinity |
| 7.18 ± 0.01 µM | 8.88 ± 0.02 µM | > 40 µM | – | – | CC/C=C\CCOC(C)=O [(Z)-3-Hexenyl acetate] | intensive response; also recorded: significant attraction; also recorded: significantly attracted | electrophysiological response on female antennae [1]: strong electrophysiological responses |
| 7.29 ± 0.09 µM | 9 ± 0.11 µM | 38.28 ± 0.12 µM | 28.76 ± 0.09 µM | – | CCCCCCC(=O)OCC [Ethyl heptanoate] | intensive response; also recorded: significant attraction; also recorded: significantly attracted | electrophysiological response on female antennae [1]: strong electrophysiological responses |
| 3.34 ± 0.02 µM | 4.11 ± 0.02 µM | 28.79 ± 0.09 µM | 21.63 ± 0.06 µM | – | CCCCCCCOC(C)=O [Heptyl acetate] | intensive response; also recorded: significant attraction; also recorded: significantly attracted | electrophysiological response on female antennae [1]: strong electrophysiological responses |
| 10.42 ± 0.08 µM | 12.88 ± 0.09 µM | 33.96 ± 0.03 µM | 25.51 ± 0.02 µM | – | CCCCCCOC(C)=O [Hexyl acetate] | intensive response; also recorded: significant attraction; also recorded: significantly attracted | electrophysiological response on female antennae [1]: strong electrophysiological responses |
| 5.9 ± 0.12 µM | 7.28 ± 0.16 µM | – | – | – | CCCCCCOC(=O)CC [Hexyl propionate] | – | – |
| > 11.3 µM | > 14 µM | > 40 µM | > 30 µM | did not show any affinity | CC(=O)OCCCCCC(C)C [Isooctyl acetate] | – | binding to SmosOBP12 (in words) (SmosOBP12): did not show any affinity |
| 4.24 ± 0.03 µM | 5.23 ± 0.01 µM | > 40 µM | – | – | CCCCCOC(=O)CCCC [Pentyl pentanoate] | – | – |
